Data on 23 compounds can be found in patent publication US9156827B2, “Anticancer agent” (THE UNIVERSITY OF TOKYO, priority 2010, dated 2015).

Where a name gives a salt, the structure may show the parent alone.

Chain of pim-1 kinase (P11309 whole entry): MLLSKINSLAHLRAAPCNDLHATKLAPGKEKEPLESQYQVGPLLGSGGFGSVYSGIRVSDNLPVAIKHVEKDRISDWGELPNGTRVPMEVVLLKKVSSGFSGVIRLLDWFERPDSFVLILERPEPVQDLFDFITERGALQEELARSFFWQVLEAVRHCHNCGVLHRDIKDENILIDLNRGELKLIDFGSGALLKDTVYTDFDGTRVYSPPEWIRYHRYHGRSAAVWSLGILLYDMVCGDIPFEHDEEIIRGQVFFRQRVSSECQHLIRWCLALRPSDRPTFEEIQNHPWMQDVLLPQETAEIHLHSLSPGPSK

The first assay has as its target pim-1 kinase (Homo sapiens, UniProt P11309). The experiment in a line: Measurement of pim-1 kinase inhibitory activity (fluorescent substrate peptide, capillary electrophoresis). It is filed as biochemical. The settings on record: 0.1 μM of each compound, 30 μM ATP, 1.5 μM substrate peptide, room temperature 2 hours; Table 1. The method, then:
Measurement of Pim-1 Kinase Inhibitory Activity
The result of the reaction was determined by quantifying the substrate and the phosphorylated reaction product separated by capillary electrophoresis based on difference in charges of the substances (EZ Reader II, Caliper Life Sciences, was used).
As to `O=C1/C(=C/c2c[nH]c3ccccc23)Oc2c1cc(-c1ccccc1)c(O)c2CN1CCNCC1` [Compound A13, (Z)-2-[(1H-Indol-3-yl)methylene]-6-hydroxy-5-phenyl-7-(piperazin-1-ylmethyl)benzofuran-3(2H)-one dihydrochloride], the inhibition at 0.1 µM came to 71%.

On to `CN(C)CCCN(C)Cc1c(O)ccc2c1O/C(=C\c1c[nH]c3ccccc13)C2=O` [Compound A8, (Z)-2-[(1H-Indol-3-yl)methylene]-7-({[3-(dimethylamino)propyl](methyl)amino}methyl)-6-hydroxybenzofuran-3(2H)-one], for which the inhibition at 0.1 µM turned out to be 20%.

For `Cc1ccc(S(=O)(=O)n2cc(/C=C3\Oc4c(ccc(O)c4CN4CCN(C)CC4)C3=O)c3ccccc32)cc1` [Compound A31, (Z)-6-Hydroxy-7-[(4-methylpiperazin-1-yl)methyl]-2-[(1-tosyl-1H-indol-3-yl)methylene]benzofuran-3(2H)-one], the inhibition at 0.1 µM stood at 47%.

Consider `O=C1/C(=C/c2c[nH]c3ccccc23)Oc2c1ccc(O)c2CN1CCSCC1` [Compound A4, (Z)-2-[(1H-Indol-3-yl)methylene]-6-hydroxy-7-(thiomorpholinomethyl)benzofuran-3(2H)-one], for which the inhibition at 0.1 µM worked out at 19%.

For `CN(C)CCCN1CCN(Cc2c(O)ccc3c2O/C(=C\c2c[nH]c4ccccc24)C3=O)CC1` [Compound A1, (Z)-2-[(1H-Indol-3-yl)methylene]-7-({4-[3-(dimethylamino)propyl]piperazin-1-yl}methyl)-6-hydroxybenzofuran-3(2H)-one], the inhibition at 0.1 µM is 51%.

As for `O=C1/C(=C/c2c[nH]c3cc([N+](=O)[O-])ccc23)Oc2c1ccc(O)c2CN1CCNCC1` [Compound A24, (Z)-6-Hydroxy-2-[(6-nitro-1H-indol-3-yl)methylene]-7-(piperazin-1-ylmethyl)benzofuran-3(2H)-one dihydrochloride], the inhibition at 0.1 µM is 60%.

In the case of `CC(=O)NCc1ccc2[nH]cc(/C=C3\Oc4c(ccc(O)c4CN4CCNCC4)C3=O)c2c1` [Compound A20, (Z)—N-[(3-{[6-Hydroxy-3-oxo-7-(piperazin-1-ylmethyl)benzofuran-2(3H)-ylidene]methyl}-1H-indol-5-yl)methyl]acetamide dihydrochloride], the inhibition at 0.1 µM was 62%.

With `COc1ccc2c(c1CN1CCOCC1)O/C(=C\c1c[nH]c3ccccc13)C2=O` [Compound A41, (Z)-2-[(1H-Indol-3-yl)methylene]-6-methoxy-7-(morpholinomethyl)benzofuran-3(2H)-one], the inhibition at 0.1 µM is 40%.

In the case of `O=C1/C(=C/c2c[nH]c3ccc(OCCN4CCOCC4)cc23)Oc2c1ccc(O)c2CN1CCNCC1` [Compound A19, (Z)-6-Hydroxy-2-{[5-(2-morpholinoethoxy)-1H-indol-3-yl]methylene}-7-(piperazin-1-ylmethyl)benzofuran-3(2H)-one dihydrochloride trihydrochloride], the inhibition at 0.1 µM stood at 62%.

As for `COC(=O)c1ccc2c(/C=C3\Oc4c(ccc(O)c4CN4CCNCC4)C3=O)c[nH]c2c1` [Compound A23, Methyl (Z)-3-{[6-hydroxy-3-oxo-7-(piperazin-1-ylmethyl)benzofuran-2(3H)-ylidene]methyl}-1H-indole-6-carboxylate], the inhibition at 0.1 µM is 56%.

For the compound `O=C1/C(=C/c2c[nH]c3nc(Cl)ccc23)Oc2c1ccc(O)c2CN1CCNCC1` [Compound A46, (Z)-2-[(6-Chloro-1H-pyrrolo[2,3-b]pyridin-3-yl)methylene]-6-hydroxy-7-(piperazin-1-ylmethyl)benzofuran-3(2H)-one trihydrochloride], the inhibition at 0.1 µM stood at 99%.

As for `O=C1/C(=C/c2c[nH]c3ncc(Br)cc23)Oc2c1ccc(O)c2CN1CCNCC1` [Compound A52, (Z)-2-[(5-Bromo-1H-pyrrolo[2,3-b]pyridin-3-yl)methylene]-6-hydroxy-7-(piperazin-1-ylmethyl)benzofuran-3(2H)-one trihydrochloride], the inhibition at 0.1 µM came to 101%.

Turning to `COc1cc(CN2CCNCC2)c2c(c1)C(=O)/C(=C/c1c[nH]c3ccccc13)O2` [Compound A14, (Z)-2-[(1H-Indol-3-yl)methylene]-5-methoxy-7-(piperazin-1-ylmethyl)benzofuran-3(2H)-one dihydrochloride], the inhibition at 0.1 µM is 87%.

The same assay, now with this note: 0.1 μM of each compound, 30 μM ATP, 1.5 μM substrate peptide, room temperature 2 hours; Table 2.
For `COc1ccc2c(c1CN1CCN(C)CC1)O/C(=C\c1n[nH]c3ccccc13)C2=O` [Compound B32, (Z)-2-[(1H-Indazol-3-yl)methylene]-6-methoxy-7-[(4-methylpiperazin-1-yl)methyl]benzofuran-3(2H)-one], the inhibition at 0.1 µM was determined as 63%.

Regarding `CN1CCN(Cc2cc(Cl)cc3c2O/C(=C\c2n[nH]c4ccccc24)C3=O)CC1` [Compound B40, (Z)-2-[(1H-Indazol-3-yl)methylene]-5-chloro-7-[(4-methylpiperazin-1-yl)methyl]benzofuran-3(2H)-one], the inhibition at 0.1 µM stood at 14%.

Consider `O=C1/C(=C/c2n[nH]c3ccccc23)Oc2c1ccc(OCc1ccccc1)c2CN1CCNCC1` [Compound B28, (Z)-2-[(1H-Indazol-3-yl)methylene]-6-(benzyloxy)-7-(piperazin-ylmethyl)benzofuran-3(2H)-one], for which the “Pim-1 kinase inhibitory activity (%)” value is 92%.

Take `COc1ccc2[nH]nc(/C=C3\Oc4c(ccc(O)c4CN4CCNCC4)C3=O)c2c1` [Compound B11, (Z)-6-Hydroxy-7-(piperazin-1-ylmethyl)-2-[(5-methoxy-1H-indazol-3-yl)methylene]benzofuran-3(2H)-one]: the inhibition at 0.1 µM came to 87%.

As for `O=C1/C(=C/c2n[nH]c3ccccc23)Oc2c1cc(Cl)c(O)c2CN1CCNCC1` [Compound B13, (Z)-2-[(1H-Indazol-3-yl)methylene]-5-chloro-6-hydroxy-7-(piperazin-1-ylmethyl)benzofuran-3(2H)-one], the inhibition at 0.1 µM worked out at 88%.

As for `O=C1/C(=C/c2n[nH]c3ccccc23)Oc2c1ccc(O)c2CN1CCOCC1` [Compound B5, (Z)-2-[(1H-Indazol-3-yl)methylene]-6-hydroxy-7-(morpholinomethyl)benzofuran-3(2H)-one], the inhibition at 0.1 µM worked out at 22%.

In the case of `O=C1/C(=C/c2n[nH]c3ccc(Cl)cc23)Oc2c1ccc(O)c2CN1CCNCC1` [Compound B9, (Z)-6-Hydroxy-7-(piperazin-1-ylmethyl)-2-[(5-chloro-1H-indazol-3-yl)methylene]benzofuran-3(2H)-one], the inhibition at 0.1 µM worked out at 93%.

For the compound `O=C1/C(=C/c2n[nH]c3ccc(OC(F)(F)F)cc23)Oc2c1ccc(O)c2CN1CCNCC1` [Compound B12, (Z)-6-Hydroxy-7-(piperazin-1-ylmethyl)-2-{[5-(trifluoromethoxy)-1H-indazol-3-yl]methylene}benzofuran-3(2H)-one], the inhibition at 0.1 µM worked out at 90%.

For the compound `O=C1/C(=C/c2n[nH]c3ccc(F)cc23)Oc2c1cc(Cl)c(O)c2CN1CCNCC1` [Compound B14, (Z)-5-Chloro-2-[(5-fluoro-1H-indazol-3-yl)methylene]-6-hydroxy-7-(piperazin-1-ylmethyl)benzofuran-3(2H)-one], the inhibition at 0.1 µM came out at 80%.

As to `O=C1/C(=C/c2n[nH]c3ccc(Cl)cc23)Oc2c1cc(Cl)c(O)c2CN1CCNCC1` [Compound B15, (Z)-5-Chloro-2-[(5-chloro-1H-indazol-3-yl)methylene]-6-hydroxy-7-(piperazin-1-ylmethyl)benzofuran-3(2H)-one], the inhibition at 0.1 µM came out at 90%.

A word on the inhibition: it is the relative decrease from the control value, in per cent.
